The values that follow come from ChEMBL document CHEMBL1201862, “PubChem BioAssay data set” (2004).

Some test systems named below: SF-295; OVCAR-4; NCI-H460; CAKI-1; MDA-MB-231; COLO 205; SNB-19; RXF 393; UACC-62; TK-10; SK-MEL-2; UO-31; SR; MCF7; HOP-92; U-251; LOX IMVI; SK-MEL-5; HOP-62; NCI-H23.
Holding throughout (experiment): NCI-60 cell line screen, 48 h

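Growth conditions: 96-well plates. Treatment: test compound, 48 hours, 5 concentrations. Analysis: linear interpolation between bracketing concentrations; unreached endpoints set to highest concentration. Abbreviation: GI50, concentration required for 50% inhibition of growth.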 The source made the active and inactive calls. Cut-off read from the data, not from the text of the source: active = GI50 up to about 1.1 µM and inactive = higher. Some results are limits rather than exact numbers.

With `COC(=O)[C@H]1C=C[C@H](OC2OC(COC(C)=O)C(OC(C)=O)C(OC(C)=O)C2OC(C)=O)n2c(=O)n(-c3ccccc3)c(=O)n21` (stereo not given in full), the GI50 was 13.1 µM (inactive) with SF-295; 2.87 µM (inactive) with OVCAR-4; 2.92 µM (inactive) in the test on NCI-H460; 0.935 µM (active) in the test on CAKI-1; 6.97 µM (inactive) in the test with MDA-MB-231; 1.7 µM (inactive) in the test on COLO 205. The GI50 in the test with SNB-19 is 16.7 µM (inactive); with RXF 393, 1.82 µM (inactive); with UACC-62 it was 1.54 µM (inactive); in the test with TK-10, 4.8 µM (inactive); in the test with SK-MEL-2, 12.1 µM (inactive); in the test on UO-31 it was 2.04 µM (inactive). Further, the GI50 in the test on SR was 2.03 µM (inactive); in the test with MCF7 it was 2.42 µM (inactive); in the test on HOP-92, 1.78 µM (inactive); in the test on U-251, 8.75 µM (inactive); in the test on LOX IMVI it was 1.84 µM (inactive); in the test with SK-MEL-5, 2.12 µM (inactive). Also, the GI50 was 8.55 µM (inactive) in the test with HOP-62 and 4.99 µM (inactive) in the test with NCI-H23.
With `Cn1c(=O)c2c([nH]/c(=N/N=C/c3ccccc3C(=O)O)n2C)n(C)c1=O`, the GI50 in the test on SF-295, with OVCAR-4, with NCI-H460, in the test on CAKI-1, in the test on MDA-MB-231 and in the test on COLO 205 was > 100 µM (inactive) throughout. Besides, the GI50 with SNB-19, in the test on RXF 393, in the test on UACC-62, in the test on TK-10, with SK-MEL-2 and with UO-31 was > 100 µM (inactive) in each case. In addition, the GI50 in the test with SR, in the test with MCF7, in the test on HOP-92, in the test with U-251, in the test with LOX IMVI and in the test on SK-MEL-5 was > 100 µM (inactive) in each case. Further, the GI50 in the test with HOP-62 and in the test with NCI-H23 was > 100 µM (inactive) in each case.
For `O=C(CCCN1CC=C(n2c(=O)[nH]c3ccccc32)CC1)c1cccs1`, the GI50 with SF-295 was > 100 µM (inactive); in the test with OVCAR-4, > 100 µM (inactive); in the test with NCI-H460 it was 63.5 µM (inactive); in the test on CAKI-1, > 100 µM (inactive); in the test on MDA-MB-231, > 100 µM (inactive); in the test with COLO 205, > 100 µM (inactive). Further, the GI50 in the test with SNB-19 is > 100 µM (inactive); with RXF 393 it was > 100 µM (inactive); in the test with UACC-62 it was > 100 µM (inactive); in the test with TK-10 it was 67.5 µM (inactive); with SK-MEL-2 it was > 100 µM (inactive); in the test on UO-31 it was > 100 µM (inactive). Moreover, the GI50 in the test with SR was > 100 µM (inactive); with MCF7 it was 11.8 µM (inactive); in the test with HOP-92, > 100 µM (inactive); in the test with U-251, > 100 µM (inactive); in the test with LOX IMVI, > 100 µM (inactive); with SK-MEL-5, > 100 µM (inactive). Besides, the GI50 with HOP-62 and with NCI-H23 was > 100 µM (inactive) in each case.
On to `Cc1ccccc1Nc1nc2ccccc2nc1NS(=O)(=O)c1ccccc1`, for which the GI50 was 67.1 µM (inactive) in the test with SF-295; 38.5 µM (inactive) in the test with OVCAR-4; > 100 µM (inactive) in the test with NCI-H460; > 100 µM (inactive) with CAKI-1; > 100 µM (inactive) with MDA-MB-231; > 100 µM (inactive) in the test with COLO 205. Besides, the GI50 was 96.8 µM (inactive) in the test on SNB-19; > 100 µM (inactive) in the test with RXF 393; 62.2 µM (inactive) in the test with UACC-62; > 100 µM (inactive) with TK-10; > 100 µM (inactive) with SK-MEL-2; > 100 µM (inactive) in the test on UO-31. For the same compound, the GI50 in the test with SR was > 100 µM (inactive); in the test on MCF7, > 100 µM (inactive); in the test with HOP-92, 47.5 µM (inactive); in the test with U-251, 67.9 µM (inactive); in the test with LOX IMVI it was > 100 µM (inactive); in the test on SK-MEL-5, > 100 µM (inactive). Besides, the GI50 in the test with HOP-62 was 68.1 µM (inactive); with NCI-H23, 43.1 µM (inactive).
Regarding `CCOC(CN(C)C(=O)Nc1cccc2ccccc12)OCC`, the GI50 in the test with SF-295, in the test on OVCAR-4, in the test on NCI-H460, in the test on CAKI-1, in the test with MDA-MB-231 and in the test with COLO 205 was > 10 µM (inactive) in each case. Besides, the GI50 in the test with SNB-19, with RXF 393, in the test with UACC-62, in the test with TK-10, in the test with SK-MEL-2 and in the test on UO-31 was > 10 µM (inactive) in each case. Besides, the GI50 in the test on SR, with MCF7, with HOP-92, in the test on U-251, in the test on LOX IMVI and in the test on SK-MEL-5 was > 10 µM (inactive) in each case. Moreover, the GI50 in the test with HOP-62 and in the test on NCI-H23 was > 10 µM (inactive) in each case.
On to `O=C1C2=Cc3ccccc3CCN2c2ccccc21`, for which the GI50 in the test on SF-295 is 34.4 µM (inactive); with OVCAR-4, 33.7 µM (inactive); in the test with NCI-H460, 21.2 µM (inactive); in the test on CAKI-1, 19.1 µM (inactive); in the test with MDA-MB-231 it was > 41.9 µM (inactive); with COLO 205 it was > 41.7 µM (inactive). Further, the GI50 was 46 µM (inactive) in the test on SNB-19; > 10 µM (inactive) in the test with RXF 393; > 10 µM (inactive) in the test on UACC-62; > 100 µM (inactive) in the test on TK-10; 21 µM (inactive) in the test with SK-MEL-2; 42.8 µM (inactive) in the test with UO-31. The GI50 in the test with SR was 14.9 µM (inactive); in the test on MCF7 it was 14.9 µM (inactive); with HOP-92, 28.8 µM (inactive); in the test with U-251 it was > 31.6 µM (inactive); in the test with LOX IMVI, 17.3 µM (inactive); in the test on SK-MEL-5, 17.3 µM (inactive). Besides, the GI50 in the test on HOP-62 was > 63.8 µM (inactive); in the test on NCI-H23, > 59.6 µM (inactive).
Take `CCOC(=O)C(NC(=O)c1ccccc1)(N1CCN(c2cc3c(cc2F)c(=O)c(C(=O)O)cn3CC)CC1)C(F)(F)F` (stereo not given): the GI50 in the test with SF-295 was 37.5 µM (inactive); in the test on OVCAR-4, 33.1 µM (inactive); in the test with NCI-H460, 32.1 µM (inactive); in the test with CAKI-1, 21.4 µM (inactive); with MDA-MB-231, 23.6 µM (inactive); in the test on COLO 205 it was 17.1 µM (inactive). For the same compound, the GI50 with SNB-19 was 29.9 µM (inactive); with RXF 393, 33.8 µM (inactive); in the test with UACC-62, 29.6 µM (inactive); with TK-10, 29.4 µM (inactive); in the test on SK-MEL-2 it was 31.5 µM (inactive); with UO-31, 31.3 µM (inactive). In addition, the GI50 was 27.2 µM (inactive) in the test on SR; 26.6 µM (inactive) in the test with MCF7; 28.8 µM (inactive) with HOP-92; 41.2 µM (inactive) in the test on U-251; 15.6 µM (inactive) in the test with LOX IMVI; 22.9 µM (inactive) with SK-MEL-5. Moreover, the values for the GI50 in the test with HOP-62 and in the test with NCI-H23 were 31.2 µM (inactive) and 32.4 µM (inactive), respectively.
On to `COC(=O)c1cccc(OC)c1C#Cc1c(OC)cccc1OC`, for which the GI50 with SF-295 is > 100 µM (inactive); in the test on OVCAR-4, 54.1 µM (inactive); in the test with NCI-H460, > 100 µM (inactive); with CAKI-1, > 100 µM (inactive); with MDA-MB-231 it was > 100 µM (inactive); in the test on COLO 205, > 100 µM (inactive). Further, the GI50 in the test on SNB-19, in the test with RXF 393, in the test with UACC-62, in the test on TK-10, in the test on SK-MEL-2 and in the test with UO-31 was > 100 µM (inactive) in each case. In addition, the GI50 in the test with SR, with MCF7, with HOP-92, in the test on U-251, with LOX IMVI and with SK-MEL-5 was > 100 µM (inactive) in each case. The GI50 in the test with HOP-62 and with NCI-H23 was > 100 µM (inactive) throughout.
`O=[N+]([O-])c1ccc2[nH]c(=S)[nH]c(=S)c2c1`: the GI50 in the test with SF-295, in the test on OVCAR-4, in the test with NCI-H460, in the test on CAKI-1, with MDA-MB-231 and in the test with COLO 205 was > 100 µM (inactive) each time. Further, the GI50 with SNB-19, in the test with RXF 393, in the test on UACC-62, with TK-10, in the test with SK-MEL-2 and in the test on UO-31 was > 100 µM (inactive) throughout. The GI50 with SR, in the test on MCF7, in the test on HOP-92, in the test on U-251, with LOX IMVI and in the test with SK-MEL-5 was > 100 µM (inactive) in each case. In addition, the GI50 in the test on HOP-62 and in the test on NCI-H23 was > 100 µM (inactive) each time.
